One compound from patent US5264347A, “Method for the determination of α-ketoisocaproate in biological samples using D-α-hydroxyisocaproic dehydrogenase from lactobacillus casei” (Kernforschungsanlage Juelich GmbH, priority 1988, dated 1993) can be followed below.

Assay [1] deals with hydroxy-acid dehydrogenase (enzyme solution) of L. curvatus DSM 20 019. Briefly: Selection of a suitable enzyme: initial reaction rate with keto acid, NADH absorption at 340 nm. It counts as biochemical. As to conditions: 0.15 mM keto acid, 0.2 mM NADH, pH 7.0. How it is done: (§1) The species Lactobacillus casei is currently divided into five subgroups (subspecies). […] The three keto acids KIC, KMV and KIV were used in a concentration of 0.15 mM (final concentration in the assay). […] For the assay mixture, the microorganisms which had been cultured under customary conditions were harvested, the cells were disrupted by mechanical action, and the supernatant obtained by centrifugation was used as "enzyme solution" for the assay. Besides the various Lactobacillus casei strains, other Lactobacillus strains were also investigated; two typical representatives are listed in a table below. The assay mixture contained: 0.1M potassium phosphate buffer, pH 7.0; 0.2 mM NADH; 0.020 ml of enzyme solution (0.1-0.2 mg of protein); 0.15 mM keto acid (as shown in the table). The initial reaction rate was determined by measuring the absorption at 340 nm as a function of time. (The reaction rate is reported in international units (IU)/min.) The results obtained are summarized below.

In assay [2] the target is T1, hydroxy-acid dehydrogenase (enzyme solution) of L. confusus DSM 20 196 (Weissella confusa, UniProt P14295).
T1 sequence (P14295 1-310): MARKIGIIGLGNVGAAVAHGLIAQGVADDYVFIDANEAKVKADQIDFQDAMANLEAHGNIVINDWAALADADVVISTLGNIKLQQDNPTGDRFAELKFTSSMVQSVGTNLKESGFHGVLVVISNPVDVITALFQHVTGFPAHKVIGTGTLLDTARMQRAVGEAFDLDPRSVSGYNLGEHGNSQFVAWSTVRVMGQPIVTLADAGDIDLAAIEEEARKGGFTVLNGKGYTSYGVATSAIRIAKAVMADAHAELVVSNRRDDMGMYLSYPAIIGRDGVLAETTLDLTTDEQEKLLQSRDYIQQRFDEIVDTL
The description is as above. In kind it is biochemical. The following applies: 0.15 mM keto acid, 0.2 mM NADH, pH 7.0. How it is done:
as §1

In assay [3] the target is T2, D-α-hydroxyisocaproic dehydrogenase from Lactobacillus casei ssp. pseudoplantarum (DSM 20008) (Lacticaseibacillus paracasei, UniProt P17584).
T2 construct: D-α-hydroxyisocaproic dehydrogenase from Lactobacillus casei ssp. pseudoplantarum (DSM 20008); endogenous in cells; host or cells: Lactobacillus casei ssp. pseudoplantarum DSM 20008 (enzyme isolated from the strain's own cells)
T2 sequence (P17584 1-333): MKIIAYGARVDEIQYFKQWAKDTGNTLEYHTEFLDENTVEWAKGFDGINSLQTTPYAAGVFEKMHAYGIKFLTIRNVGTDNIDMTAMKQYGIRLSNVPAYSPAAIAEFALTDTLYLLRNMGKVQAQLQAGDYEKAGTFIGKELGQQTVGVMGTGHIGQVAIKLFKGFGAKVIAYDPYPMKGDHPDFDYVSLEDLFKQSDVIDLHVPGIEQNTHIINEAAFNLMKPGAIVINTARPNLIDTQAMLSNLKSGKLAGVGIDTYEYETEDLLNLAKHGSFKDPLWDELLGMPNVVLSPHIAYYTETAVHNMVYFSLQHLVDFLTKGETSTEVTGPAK
The assay is described as follows: Enzymatic selectivity for KIC: initial reaction rates versus keto acid concentration (FIG. 1). It counts as biochemical. As to conditions: change per minute in absorption at 340 nm versus keto-acid concentration, NADH present. An excerpt: This selectivity is illustrated in FIG. 1, which plots a measure of reaction rate (change per minute in absorption at 340 nm), in the presence of NADH and a Lactobacillus casei D-α-hydroxyisocaproicdehydrogenase, versus keto-acid concentration for KIC, KMV and KIV, respectively. In FIG. 1, .largecircle.--.largecircle. represents ketoisocaproate, O O represents ketomethylvalerate and .quadrature.----.quadrature. represents ketoisovalerate, respectively.
This entailed use of standard solutions of the three keto acids, each of known concentration (0.2 to 15 ωg/ml of assay mixture).
(§2) The assay mixture contained:
(§3) 0.1M potassium phosphate buffer, pH 7.0;
stepped concentrations of keto acids.
The initial reaction rates (ΔA340 /min) were measured at 340 nm. […] This difference would be sufficient for a selective determination of KIC, for example, in serum.

Assay [4] has as its target T3, hydroxy-acid dehydrogenase (enzyme solution) of L. casei ssp. pseudoplantarum DSM 20 207 (Lacticaseibacillus paracasei, UniProt P17584).
T3 sequence (P17584 1-333): T2 sequence (P17584 1-333)
The assay is described as follows: Selection of a suitable enzyme: initial reaction rate with keto acid, NADH absorption at 340 nm. As to conditions: 0.15 mM keto acid, 0.2 mM NADH, pH 7.0. In kind it is biochemical, Lactobacillus casei ssp. pseudoplantarum. As for the experimental part: (§4) The species Lactobacillus casei is currently divided into five subgroups (subspecies). […] The three keto acids KIC, KMV and KIV were used in a concentration of 0.15 mM (final concentration in the assay).
(§5) For the assay mixture, the microorganisms which had been cultured under customary conditions were harvested, the cells were disrupted by mechanical action, and the supernatant obtained by centrifugation was used as "enzyme solution" for the assay.
as §2, §3
(§6) 0.020 ml of enzyme solution (0.1-0.2 mg of protein);
(§7) The initial reaction rate was determined by measuring the absorption at 340 nm as a function of time. (The reaction rate is reported in international units (IU)/min.) The results obtained are summarized below.

Assay [5] concerns the target T4, hydroxy-acid dehydrogenase (enzyme solution) of L. casei ssp. pseudoplantarum DSM 20 008 (Lacticaseibacillus paracasei, UniProt P17584).
T4 construct: the cells were disrupted by mechanical action, and the supernatant obtained by centrifugation was used as; endogenous in cells; host or cells: Lactobacillus casei ssp. pseudoplantarum DSM 20008, cell-free supernatant
T4 sequence (P17584 1-333): T2 sequence (P17584 1-333)
The assay is described as above. It counts as biochemical, Lactobacillus casei ssp. pseudoplantarum. The following applies: 0.15 mM keto acid, 0.2 mM NADH, pH 7.0. As for the experimental part:
as §4, §5, §2, §3, §6, §7

Assay [6] has as its system hydroxy-acid dehydrogenase (enzyme solution) of L. casei ssp. tolerans DSM 20 258. The assay is described as above. In kind it is biochemical. The following applies: 0.15 mM keto acid, 0.2 mM NADH, pH 7.0. As for the experimental part: as §4, §5, §2, §3, §6, §7
The test system of assay [7] is hydroxy-acid dehydrogenase (enzyme solution) of L. casei ssp. rhamosus DSM 20 021. Described as above. The following applies: 0.15 mM keto acid, 0.2 mM NADH, pH 7.0. It counts as biochemical. As for the experimental part: as §4, §5, §2, §3, §6, §7
Assay [8] concerns hydroxy-acid dehydrogenase (enzyme solution) of L. case ssp. alactosus DSM 20 020. The assay is described as above. It counts as biochemical. As to conditions: 0.15 mM keto acid, 0.2 mM NADH, pH 7.0. As for the experimental part: as §4, §5, §2, §3, §6, §7
Assay [9] has as its target T5, hydroxy-acid dehydrogenase (enzyme solution) of L. casei ssp. casei DSM 20 011 (Lacticaseibacillus casei, UniProt A0AAN1C5W2).
T5 sequence (A0AAN1C5W2 1-333): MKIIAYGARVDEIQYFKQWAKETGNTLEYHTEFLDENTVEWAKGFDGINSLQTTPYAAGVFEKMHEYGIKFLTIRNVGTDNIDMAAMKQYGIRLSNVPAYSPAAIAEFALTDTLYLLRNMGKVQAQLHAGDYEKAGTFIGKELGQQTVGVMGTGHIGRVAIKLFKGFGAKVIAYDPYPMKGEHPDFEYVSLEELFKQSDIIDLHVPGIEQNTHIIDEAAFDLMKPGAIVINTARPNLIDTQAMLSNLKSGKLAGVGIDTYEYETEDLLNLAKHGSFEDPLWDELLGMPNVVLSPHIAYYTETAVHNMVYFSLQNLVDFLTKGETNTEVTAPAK
The assay is described as above. In kind it is biochemical, Lactobacillus casei ssp. casei. As to conditions: 0.15 mM keto acid, 0.2 mM NADH, pH 7.0. As for the experimental part: as §4, §5, §2, §3, §6, §7

In the case of `CCC(C)C(=O)C(=O)O` (stereo not drawn) [KMV, ketomethylvalerate], the initial reaction rate was 1.40 IU/min in assay [1]; 0.90 IU/min in assay [2]; 0 IU/min in assay [4]; 0.12 IU/min in assay [5]; 0 IU/min in [6]; 0 IU/min in [7]. The initial reaction rate in assay [8] and in [9] was 0 IU/min throughout. Moreover, in [3], the “enzymatic conversion relative to the conversion of KIC (FIG. 1)” value is reported as “can be ignored”.
